Here are results for 10 compounds from US20260007684A1, “AMIDE DERIVATIVES FOR INHIBITING NLRP3 AND USES THEREOF” (Ventus Therapeutics U.S., Inc., priority 2023, published 2026).

The structures appear in SMILES notation. pIC50: −log10 of the molar value.

For assay [1], the target named is T1, human NLRP3 (Homo sapiens (Human), UniProt Q96P20). The assay is described as follows: Human Whole Blood (hWB) NLRP3 Assay (LPS/ATP, IL-1β). The format is cell-based.
Assay [2] deals with T1, human NLRP3. Nature of the assay: Scintillation Proximity (SPA) NLRP3 Assay: displacement of 3H-MCC950. The format is binding. To be noted: read-out: SPA IC50. In general terms: SPA uses beads or plates that emit light when radiolabelled molecules are held near them.
Assay [3] concerns the target T1, human NLRP3. The assay is described as follows: Human PBMC NLRP3 Assay (LPS priming, ATP stimulation, cytokine measurement). The format is cell-based. The settings on record: human PBMC, LPS priming, ATP stimulation; read-out: PBMC IC50.
The mark [4] stands for this setting: human whole blood, LPS/ATP, IL-1β, read-out: hWB IC50.

T1 sequence (Q96P20 whole entry): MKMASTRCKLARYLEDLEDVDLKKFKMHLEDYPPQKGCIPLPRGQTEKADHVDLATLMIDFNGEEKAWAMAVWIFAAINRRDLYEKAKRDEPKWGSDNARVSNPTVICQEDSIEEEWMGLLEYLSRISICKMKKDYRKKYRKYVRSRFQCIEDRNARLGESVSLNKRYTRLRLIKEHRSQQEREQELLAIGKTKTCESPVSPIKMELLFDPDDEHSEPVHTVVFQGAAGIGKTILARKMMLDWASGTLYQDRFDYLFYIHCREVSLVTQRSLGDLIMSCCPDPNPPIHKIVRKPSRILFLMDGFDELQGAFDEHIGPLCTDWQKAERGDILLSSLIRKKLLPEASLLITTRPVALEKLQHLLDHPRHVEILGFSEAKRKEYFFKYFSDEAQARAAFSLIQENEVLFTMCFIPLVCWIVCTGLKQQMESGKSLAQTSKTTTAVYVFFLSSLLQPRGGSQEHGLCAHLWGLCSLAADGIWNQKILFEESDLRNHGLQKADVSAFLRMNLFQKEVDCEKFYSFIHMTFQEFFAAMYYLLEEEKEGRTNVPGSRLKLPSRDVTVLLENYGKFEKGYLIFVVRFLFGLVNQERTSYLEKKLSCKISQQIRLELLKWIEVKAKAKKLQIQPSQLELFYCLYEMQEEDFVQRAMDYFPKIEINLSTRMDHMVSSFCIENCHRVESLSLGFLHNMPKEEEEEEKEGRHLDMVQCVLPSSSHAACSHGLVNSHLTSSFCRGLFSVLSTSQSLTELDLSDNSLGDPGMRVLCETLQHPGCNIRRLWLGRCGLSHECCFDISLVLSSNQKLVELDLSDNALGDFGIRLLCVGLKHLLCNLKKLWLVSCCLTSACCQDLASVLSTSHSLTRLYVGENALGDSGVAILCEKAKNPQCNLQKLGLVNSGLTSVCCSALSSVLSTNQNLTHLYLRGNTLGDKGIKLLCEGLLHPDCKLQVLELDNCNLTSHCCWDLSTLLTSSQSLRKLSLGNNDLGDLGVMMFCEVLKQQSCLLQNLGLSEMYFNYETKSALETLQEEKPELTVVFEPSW

As a reminder, the pIC50 is −log10 of the IC50, conventionally taken in molar units. As to `O=C(N[C@@H]1CCCCCN(c2nnn[nH]2)C1)C1(c2ccc(Cl)cc2)CC1` (single isomer, unassigned) [14A*, N-(1-(1H-tetrazol-5-yl)azocan-3-yl)-1-(4-chlorophenyl)cyclopropane-1-carboxamide], the negative-log IC50 (pIC50) was 5.70 to 6.00 in assay [1] (setting [4]), more than 6.00 in assay [2] (displacement of 3H-MCC950) and 7.00 to 8.00 in assay [3].
For `C[C@@H]1CCN(c2nnn[nH]2)C[C@H](NC(=O)C2(c3ccc(Cl)c(F)c3O)CC2)C1` (single isomer, unassigned) [18A*, 1-(4-chloro-3-fluoro-2-hydroxyphenyl)-N-(5-methyl-1-(1H-tetrazol-5-yl)azepan-3-yl)cyclopropane-1-carboxamide], in that order: more than 6.00, more than 6.00 and more than 8.00.
On the same counts, the results for `Cc1c(Cl)ccc(C2(C(=O)N[C@@H]3C[C@H](C)CCN(c4nnn[nH]4)C3)CC2)c1O` (single isomer, unassigned) [21A*, 1-(4-chloro-2-hydroxy-3-methylphenyl)-N-(5-methyl-1-(1H-tetrazol-5-yl)azepan-3-yl)cyclopropane-1-carboxamide] are more than 6.00, more than 6.00 and more than 8.00.
Turning to `Cc1ccc(C2(C(=O)N[C@@H]3C[C@H](C)CCN(c4nnn[nH]4)C3)CC2)c(O)c1F` (single isomer, unassigned) [22A*, 1-(3-fluoro-2-hydroxy-4-methylphenyl)-N-(5-methyl-1-(1H-tetrazol-5-yl)azepan-3-yl)cyclopropane-1-carboxamide], the pIC50 was more than 6.00 in assay [1] (setting [4]) and more than 8.00 in assay [3].
`CC(C)c1ccc(C2(C(=O)N[C@@H]3C[C@H](C)CCN(c4nnn[nH]4)C3)CC2)c(O)c1` (single isomer, unassigned) [27A*, 1-(2-hydroxy-4-isopropylphenyl)-N-(5-methyl-1-(1H-tetrazol-5-yl)azepan-3-yl)cyclopropane-1-carboxamide]: the pIC50 in assay [1] (setting [4]) is more than 6.00; in assay [2] (displacement of 3H-MCC950), more than 6.00; in assay [3], more than 8.00.
Take `C[C@@H]1C[C@H]2CC[C@@H]([C@H](NC(=O)C3(c4ccc(C(F)(F)F)cc4)CC3)C1)N2c1nnn[nH]1` [104C*, N-((1S,2R,4S,6R)-4-methyl-9-(1H-tetrazol-5-yl)-9-azabicyclo[4.2.1]nonan-2-yl)-1-(4-(trifluoromethyl)phenyl)cyclopropane-1-carboxamide]: the pIC50 in assay [1] (hWB IC50, human whole blood, LPS/ATP, IL-1β) is more than 6.00; in assay [2] (displacement of 3H-MCC950) it was more than 6.00.
With `CN(C(=O)C1(c2ccc(Cl)cc2)CC1)c1cccc(-c2nnn[nH]2)c1` [Comparative Example B2, N-(3-(1H-tetrazol-5-yl)phenyl)-1-(4-chlorophenyl)-N-methylcyclopropane-1-carboxamide, reference compound], the pIC50 was less than 4.30 in assay [1] (read-out: hWB IC50) and 3.70 in assay [2].
For `O=C(Nc1cccc(-c2ccccc2)c1)C1(c2ccc(Cl)cc2)CC1` [Comparative Example D, N-([1,1′-biphenyl]-3-yl)-1-(4-chlorophenyl)cyclopropane-1-carboxamide, reference compound], in that order: less than 4.30 and 3.49.
`C[C@H]1C[C@@H](NC(=O)C2(c3ccc(C(F)F)cc3O)CC2)CN(c2nnn[nH]2)C1` [Compound 48A, 1-(4-(difluoromethyl)-2-hydroxyphenyl)-N-((3R,5S)-5-methyl-1-(1H-tetrazol-5-yl)piperidin-3-yl)cyclopropane-1-carboxamide]: the pIC50 in assay [1] (setting [4]) and in assay [2] (displacement of 3H-MCC950) was more than 6.00 in each case.
As for `O=C(N[C@@H]1CCCCN(c2nnn[nH]2)C1)C1(c2ccc(Cl)cc2O)CC1` [Compound 52A, (R)-N-(1-(1H-tetrazol-5-yl)azepan-3-yl)-1-(4-chloro-2-hydroxyphenyl)cyclopropane-1-carboxamide], the pIC50 was more than 6.00 in assay [1] (setting [4]), 6.59 in assay [1] (read-out: hWB IC50), more than 6.00 in assay [2] (displacement of 3H-MCC950) and 7.10 in assay [2].
